The values below come from publication PMC5496796 (Clinical cancer research : an official journal of the …, 2017).

“Also recorded” adds a separate entry of the source. Where two headings read alike, the source gives them in different places.

For data set [1] the following is noted: tablet form; ref [25]; cited from earlier work.
Data set [2] has as its system acetylated histones (a substrate of class I HDACs). The data set can be described thus: Acetylated histones in CD3+ peripheral blood lymphocytes. The conditions noted are these: 1 hour after first dose. The format is in vivo, human.
Data set [3] relates to acetylated tubulin (a substrate of HDAC6). Particulars: for change in acetylated tubulin: 1 hour after first dose.
The test system of data set [4] is patients with relapsed or refractory multiple myeloma.
The test system of data set [5] is relapsed or refractory multiple myeloma. The data set can be described thus: Treatment response by IMWG criteria, phase 1/2 trial. It counts as in vivo, human. The conditions noted are these: single-agent ricolinostat.
The next data set in a line: Plasma pharmacokinetics. The format is in vivo, human.
[6] abbreviates: single agent ricolinostat 160 mg.
[7] abbreviates: single agent ricolinostat 240 mg.
The mark [8] stands for this setting: single agent ricolinostat, N=15.
Where [9] appears, read: single-agent ricolinostat, 15 patients.
The mark [10] stands for this setting: initial 160 mg daily oral dose, cohort 4′, n=14, mean ± SD.

Take `O=C(CCCCCCNC(=O)c1cnc(N(c2ccccc2)c2ccccc2Cl)nc1)NO` [ACY-241]: the exposure plateau result in data set [1] is listed as “does not exhibit the exposure plateau”.
As for `O=C(CCCCCCNC(=O)c1cnc(N(c2ccccc2)c2ccccc2)nc1)NO` [ricolinostat], the “change in histone acetylation” value in data set [2] (setting [6]) is “unchanged”. In addition, in data set [2] (setting [7]), the “change in histone acetylation” value was “qualitative increase”. Besides, the “acetylated tubulin in peripheral blood lymphocytes, dose dependence” value in data set [3] (samples taken during therapy) is “dose-dependent increases”. Besides, the “change in acetylated tubulin” value in data set [3] (setting [6]) is “increase”. Besides, the “change in acetylated tubulin” value in data set [3] (setting [7]) is on record as “upward trend”. For the same compound, the “toxicity, overall” value in data set [4] (single agent ricolinostat therapy) is recorded as “neither significant toxicity”. Besides, in data set [4] (setting [8]), the “Amylase elevation, All grades” value was 0 (0) N (%); the “Amylase elevation, Grade 3/4” value is given as 0 (0) N (%); the “Anemia, All grades” value is recorded as 3 (20) N (%); the “Anemia, Grade 3/4” value is given as 1 (7) N (%). In addition, in data set [4] (setting [8]), the “Blood creatinine elevation, All grades” value is listed as 5 (33) N (%); the “Blood creatinine elevation, Grade 3/4” value is on record as 0 (0) N (%); the “Bronchitis, All grades” value is 0 (0) N (%); the “Bronchitis, Grade 3/4” value is 0 (0) N (%). Further, in data set [4] (setting [8]), the “Diarrhea, All grades” value was 3 (20) N (%); the “Dyspnea, All grades” value is given as 1 (7) N (%); the “Dyspnea, Grade 3/4” value is 0 (0) N (%); the “Fatigue, All grades” value is given as 4 (27) N (%). Moreover, in data set [4] (setting [8]), the “Febrile neutropenia, All grades” value was 0 (0) N (%); the “Febrile neutropenia, Grade 3/4” value is recorded as 0 (0) N (%); the “Hyperglycemia, All grades” value is on record as 0 (0) N (%); the “Hyperglycemia, Grade 3/4” value was 0 (0) N (%). In data set [4] (setting [8]), the “Hypertension, All grades” value is given as 0 (0) N (%); the “Hypertension, Grade 3/4” value was 0 (0) N (%); the “Hypokalemia, All grades” value is reported as 1 (7) N (%); the “Hypokalemia, Grade 3/4” value is recorded as 0 (0) N (%). Besides, in data set [4] (setting [8]), the “Hyponatremia, All grades” value is on record as 1 (7) N (%); the “Hyponatremia, Grade 3/4” value was 0 (0) N (%); the “Hypophosphatemia, All grades” value is 2 (13) N (%); the “Hypophosphatemia, Grade 3/4” value was 1 (7) N (%). In data set [4] (setting [8]), the “Influenza, All grades” value is listed as 0 (0) N (%); the “Influenza, Grade 3/4” value is on record as 0 (0) N (%); the “Nausea, All grades” value is 2 (13) N (%); the “Nausea, Grade 3/4” value is given as 0 (0) N (%). In addition, in data set [4] (setting [8]), the “Neutropenia, All grades” value was 2 (13) N (%); the “Neutropenia, Grade 3/4” value is given as 1 (7) N (%); the “Peripheral neuropathy, All grades” value was 0 (0) N (%); the “Peripheral neuropathy, Grade 3/4” value is 0 (0) N (%). Further, in data set [4] (setting [8]), the “Pneumonia, All grades” value is 0 (0) N (%); the “Pneumonia, Grade 3/4” value is 0 (0) N (%); the “Pulmonary embolism, All grades” value is recorded as 0 (0) N (%); the “Pulmonary embolism, Grade 3/4” value is on record as 0 (0) N (%). For the same compound, in data set [4] (setting [8]), the “Thrombocytopenia, All grades” value is 2 (13) N (%); the “Thrombocytopenia, Grade 3/4” value is 2 (13) N (%); the “Transaminase elevation, All grades” value was 1 (7) N (%); the “Transaminase elevation, Grade 3/4” value was 0 (0) N (%). Also, in data set [4] (setting [8]), the “Vomiting, All grades” value is on record as 0 (0) N (%) and the “Vomiting, Grade 3/4” value is listed as 0 (0) N (%). Moreover, the dose limiting toxicities entry in data set [4] (single-agent dose escalation, 40-360 mg daily) is “did not observe any dose limiting toxicities”. Moreover, the maximum tolerated dose result in data set [4] (single-agent dose escalation, up to 360 mg qd) was “did not identify a maximum tolerated dose”. Moreover, in data set [4] (single-agent ricolinostat), the “QT interval prolongation, serial triplicate electrocardiograms” value is “no evidence of QT interval prolongation” and the “discontinuation because of a treatment emergent adverse event” value is “No patient discontinued”. Besides, in data set [4] (setting [9]), the “adverse events observed during therapy: anemia” value is reported as 20%, the “adverse events observed during therapy: diarrhea” value came to 20%, the “adverse events observed during therapy: fatigue” value amounted to 27% and the “adverse events observed during therapy: renal insufficiency” value amounted to 33%. The “duration of stable disease, median” value in data set [5] (6 patients, range 5 – 30) was determined as 11 weeks. For the same compound, the “clinical response (minor or partial response)” value in data set [5] (15 patients) is on record as “nor clinical responses; also recorded: no patients had a minor or partial response”. Besides, the “patients with stable disease” value in data set [5] (of the 15 patients) turned out to be 6. Besides, the “drug accumulation upon repeated dosing” value in “Plasma pharmacokinetics” (bid dosing) was determined as 1.01 ± 0.26. Moreover, the Cmax (as a rule, the maximum level reached in the sampled fluid or tissue) in “Plasma pharmacokinetics” (human, plasma, oral, mean Cmax on day 11, bid administration, n=10) came out at 524 ± 150 ng/mL. In “Plasma pharmacokinetics” (human, plasma, oral, mean Cmax on day 11, qd dosing, n=11), this compound returned a Cmax of 648 ± 200 ng/mL. Moreover, in the data set “Plasma pharmacokinetics” (human, plasma, po, 160 mg), the half-life – broadly, the time needed for the level to fall by half in the phase considered – was 3.26 ± 0.46 h. Also, in “Plasma pharmacokinetics” (setting [10]), the apparent oral clearance is given as 111 ± 25 L/h and the “apparent oral total body volume of distribution” value was found to be 521 ± 166 L. Further, the “dose dependence of exposure (Cmax)” value in the data set “Plasma pharmacokinetics” (oral 40 to 360 mg, alone or with bortezomib) is “plateau in exposure at dose levels ≥160 mg; also recorded: no significant increase at doses greater than 160 mg”. Further, the “median time of maximum observed concentration in plasma (Cmax)” value in the data set “Plasma pharmacokinetics” (oral, initial dose and dose on day 11, range 0.25–2.0 hours) worked out at 1.0 h. The “drug accumulation upon repeated dosing” value in the data set “Plasma pharmacokinetics” (qd dosing) is on record as 1.10 ± 0.20.
Take `CC(C)C[C@H](NC(=O)[C@H](Cc1ccccc1)NC(=O)c1cnccn1)B(O)O` [bortezomib, reference compound]: in the data set “Plasma pharmacokinetics” (after i.v. injection, days 1 and 11, with few exceptions), the “time of observed Cmax of bortezomib (first plasma sample)” value worked out at 15 min. The Cmax in “Plasma pharmacokinetics” (human, plasma, mean Cmax of bortezomib, day 1 dose, cohort 4′ ([…]^2 with ricolinostat 160 mg QD), n=14) was found to be 24 ± 11 ng/mL; in “Plasma pharmacokinetics” (human, plasma, mean Cmax of bortezomib, day 11 dose, cohort 4′ ([…]^2 with ricolinostat 160 mg QD), n=11), 40 ± 15 ng/mL.
